Article PMC8366290, “Efficacy of a Novel Bi-Steric mTORC1 Inhibitor in Models of B-Cell Acute Lymphoblastic Leukemia” (Frontiers in Oncology, 2021)

Target: T1, mTOR (mTORC1) (Homo sapiens, UniProt P42345)
T1 construct: with raptor (mTORC1 complex)
Assay: MSD electrochemiluminescent assay of p4E-BP1 T37/T46 in SUP-B15 cells, with immunoblot
Format: cell-based

## CO[C@H]1C[C@@H]2CC[C@@H](C)[C@@](O)(O2)C(=O)C(=O)N2CCCC[C@H]2C(=O)O[C@H]([C@H](C)C[C@@H]2CC[C@@H](OCCCCc3cn(CCOCCOCCOCCOCCOCCOCCOCCOCCC(=O)NCCCCn4nc(-c5cc6cc(O)ccc6[nH]5)c5c(N)ncnc54)nn3)[C@H](OC)C2)CC(=O)[C@H](C)/C=C(\C)[C@@H](O)[C@@H](OC)C(=O)[C@H](C)C[C@H](C)/C=C/C=C/C=C/1C [RMC-4627]
  EC50: 2 nM
